Laboratory results published in ChEMBL document CHEMBL1201862, “PubChem BioAssay data set” (2004).
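Tested at 5 concentrations; 48 h exposure; 96-well plates; endpoints linearly interpolated, else capped at highest concentration. Abbreviation: GI50, concentration required for 50% inhibition of growth.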 The source made the active and inactive calls. Cut-off read from the data, not from the text of the source: active = GI50 up to about 1.1 µM and inactive = higher.

Assays:
Test in all cases: inhibition of tumour cell growth, NCI panel, 48 h
786-0 = system: 786-0
CAKI-1 = system: CAKI-1
COLO 205 = system: COLO 205
HCC 2998 = system: HCC 2998
HCT-15 = system: HCT-15
IGROV-1 = system: IGROV-1
K562 = system: K562
MDA-MB-231 = system: MDA-MB-231
NCI-H226 = system: NCI-H226
NCI-H460 = system: NCI-H460
OVCAR-3 = system: OVCAR-3
OVCAR-4 = system: OVCAR-4
PC-3 = system: PC-3
RPMI-8226 = system: RPMI-8226
SK-MEL-2 = system: SK-MEL-2
SK-MEL-5 = system: SK-MEL-5
SN12C = system: SN12C
TK-10 = system: TK-10
UACC-257 = system: UACC-257
UO-31 = system: UO-31

Measured: GI50

COc1cc(Nc2cc(Cl)cc(Cl)c2)nc(N)n1
inactive: 786-0 17.4 µM | CAKI-1 20.4 µM | COLO 205 23.1 µM | HCC 2998 16.6 µM | IGROV-1 18.6 µM | K562 30.7 µM | MDA-MB-231 18.9 µM | NCI-H226 19.4 µM | NCI-H460 16.6 µM | OVCAR-3 17.2 µM | OVCAR-4 17.9 µM | PC-3 20.8 µM | RPMI-8226 19.9 µM | SK-MEL-2 14.3 µM | SK-MEL-5 15.3 µM | SN12C 20.9 µM | TK-10 21.6 µM | UACC-257 19.3 µM | UO-31 16.9 µM
17.1 µM: HCT-15

O=C(CCCN1CCC2(CC1)OC(=O)N(c1ccccc1)C2=O)c1ccccc1
inactive: 786-0 > 100 µM | CAKI-1 > 100 µM | COLO 205 > 100 µM | HCC 2998 > 100 µM | IGROV-1 > 100 µM | K562 > 100 µM | MDA-MB-231 35.5 µM | NCI-H226 > 100 µM | NCI-H460 > 100 µM | OVCAR-3 > 100 µM | OVCAR-4 > 100 µM | PC-3 > 100 µM | RPMI-8226 > 100 µM | SK-MEL-2 > 100 µM | SK-MEL-5 > 100 µM | SN12C > 100 µM | TK-10 > 100 µM | UACC-257 > 100 µM | UO-31 27.8 µM
> 100 µM: HCT-15

CC1OC(O)CC(N(C)C)C1O.CC1OC(O)CCC1O.CCC1CC(O)c2c(O)c3c(c(O)c2C1O)C(=O)c1cccc(O)c1C3=O (stereo not given)
active: 786-0 0.0124 µM | CAKI-1 0.0156 µM | COLO 205 0.0209 µM | HCC 2998 0.0197 µM | IGROV-1 0.0284 µM | K562 0.00597 µM | MDA-MB-231 0.0275 µM | NCI-H226 0.0168 µM | NCI-H460 0.00486 µM | OVCAR-3 0.021 µM | OVCAR-4 0.0203 µM | PC-3 0.0177 µM | RPMI-8226 0.0208 µM | SK-MEL-2 0.0212 µM | SK-MEL-5 0.0177 µM | SN12C 0.0353 µM | TK-10 0.0208 µM | UACC-257 0.0342 µM | UO-31 0.0114 µM
0.0381 µM: HCT-15

CC(=O)N(C(C)=O)n1c(Cc2ccc(C)cc2)nn(C(C)=O)c1=O
inactive: 786-0 > 100 µM | CAKI-1 > 100 µM | COLO 205 > 100 µM | HCC 2998 > 100 µM | IGROV-1 > 100 µM | K562 > 100 µM | MDA-MB-231 > 100 µM | NCI-H226 > 100 µM | NCI-H460 > 100 µM | OVCAR-3 > 100 µM | OVCAR-4 > 100 µM | PC-3 > 100 µM | RPMI-8226 > 100 µM | SK-MEL-2 > 100 µM | SK-MEL-5 > 100 µM | SN12C > 100 µM | TK-10 > 100 µM | UACC-257 > 100 µM | UO-31 > 100 µM
> 100 µM: HCT-15

CC1=CC(=O)c2ccc(C)cc2C1=O [CHIMAPHILIN]
12.7 µM: HCT-15
inactive: 786-0 19.7 µM | CAKI-1 5.78 µM | COLO 205 16.3 µM | HCC 2998 19.8 µM | IGROV-1 15.1 µM | K562 3.65 µM | MDA-MB-231 11.6 µM | NCI-H226 13.8 µM | NCI-H460 14.2 µM | OVCAR-3 11.8 µM | OVCAR-4 16.7 µM | PC-3 11.6 µM | RPMI-8226 1.77 µM | SK-MEL-2 16.2 µM | SK-MEL-5 3.82 µM | SN12C 19.1 µM | TK-10 19 µM | UACC-257 12.9 µM | UO-31 11.4 µM

O=C1CC2(CCNCC2)C(=O)N1N1CCCCC1
> 100 µM: HCT-15
inactive: 786-0 > 100 µM | CAKI-1 > 100 µM | COLO 205 > 100 µM | HCC 2998 > 100 µM | IGROV-1 > 100 µM | K562 > 100 µM | MDA-MB-231 > 100 µM | NCI-H226 > 100 µM | NCI-H460 > 100 µM | OVCAR-3 > 100 µM | OVCAR-4 > 100 µM | PC-3 > 100 µM | RPMI-8226 > 100 µM | SK-MEL-2 > 100 µM | SK-MEL-5 > 100 µM | SN12C > 100 µM | TK-10 > 100 µM | UACC-257 > 100 µM | UO-31 > 100 µM

CC(C)=CC[S+]([O-])c1ccccc1NC1=CC(=O)CC(C)(C)C1 (stereo not given)
inactive: 786-0 > 100 µM | CAKI-1 > 100 µM | COLO 205 > 100 µM | HCC 2998 > 100 µM | IGROV-1 > 100 µM | K562 > 100 µM | MDA-MB-231 > 100 µM | NCI-H226 > 100 µM | NCI-H460 > 100 µM | OVCAR-3 > 100 µM | OVCAR-4 > 100 µM | PC-3 > 100 µM | RPMI-8226 > 100 µM | SK-MEL-2 > 100 µM | SK-MEL-5 > 100 µM | SN12C > 100 µM | TK-10 > 100 µM | UACC-257 > 100 µM | UO-31 > 100 µM
8.3 µM: HCT-15

CC1=C(C(=O)Nc2ccccc2)C2(CCCCC2)C(C#N)=C(SCC(=O)Nc2ccc(Br)cc2)N1
inactive: 786-0 4.1 µM | CAKI-1 4.76 µM | COLO 205 2.11 µM | HCC 2998 2.54 µM | IGROV-1 3.34 µM | K562 3.34 µM | MDA-MB-231 7.33 µM | NCI-H226 6.84 µM | NCI-H460 3.22 µM | OVCAR-3 3.27 µM | OVCAR-4 4.91 µM | PC-3 2.88 µM | RPMI-8226 2.08 µM | SK-MEL-2 2.54 µM | SK-MEL-5 3.46 µM | SN12C 4.23 µM | TK-10 6.58 µM | UACC-257 7.28 µM | UO-31 1.39 µM
4.23 µM: HCT-15

NCCCN(CCCCN(CCCN)C(=O)OCc1ccccc1)C(=O)OCc1ccccc1
inactive: 786-0 > 100 µM | CAKI-1 > 100 µM | COLO 205 > 100 µM | HCC 2998 50 µM | IGROV-1 24.2 µM | K562 37.9 µM | MDA-MB-231 35.6 µM | NCI-H226 > 100 µM | NCI-H460 88.9 µM | OVCAR-3 43.2 µM | OVCAR-4 > 100 µM | PC-3 45.8 µM | RPMI-8226 73.3 µM | SK-MEL-2 > 100 µM | SK-MEL-5 > 100 µM | SN12C > 100 µM | TK-10 > 100 µM | UACC-257 93.5 µM | UO-31 > 100 µM
> 100 µM: HCT-15

COc1cc(OC)c(/C=N/N=C(\N)NO)c(OC)c1
83.9 µM: HCT-15
inactive: 786-0 > 100 µM | CAKI-1 > 100 µM | COLO 205 > 100 µM | HCC 2998 > 100 µM | IGROV-1 90.6 µM | K562 41.6 µM | MDA-MB-231 > 100 µM | NCI-H226 > 100 µM | NCI-H460 91.4 µM | OVCAR-3 > 100 µM | OVCAR-4 > 100 µM | PC-3 > 100 µM | RPMI-8226 > 100 µM | SK-MEL-2 > 100 µM | SK-MEL-5 > 100 µM | SN12C > 100 µM | TK-10 > 100 µM | UACC-257 > 100 µM | UO-31 29 µM

CCN(CC)CCCNc1n[n+]([O-])c2ccccc2[n+]1[O-]
2.5 µM: HCT-15
inactive: 786-0 8.69 µM | CAKI-1 31.8 µM | COLO 205 11.2 µM | HCC 2998 3.46 µM | IGROV-1 5.73 µM | K562 6.93 µM | MDA-MB-231 6.01 µM | NCI-H226 20.5 µM | NCI-H460 3.99 µM | OVCAR-3 > 10 µM | OVCAR-4 23.7 µM | PC-3 9.73 µM | RPMI-8226 4.21 µM | SK-MEL-2 4.74 µM | SK-MEL-5 1.52 µM | SN12C 4.68 µM | TK-10 4.07 µM | UACC-257 14.2 µM | UO-31 28.6 µM

CCOC(=O)c1ccc(/N=C2\SC(=S)N(c3ccc(F)cc3)\C2=N/c2ccc(C(=O)OCC)cc2)cc1
4.29 µM: HCT-15
inactive: 786-0 17.1 µM | CAKI-1 21.9 µM | COLO 205 19.3 µM | HCC 2998 40.7 µM | IGROV-1 14.4 µM | K562 12.3 µM | MDA-MB-231 7.8 µM | NCI-H226 21.8 µM | NCI-H460 51.9 µM | OVCAR-3 20 µM | OVCAR-4 12.1 µM | PC-3 13.5 µM | RPMI-8226 9.42 µM | SK-MEL-2 12.9 µM | SK-MEL-5 10.5 µM | SN12C 15.7 µM | TK-10 18.9 µM | UACC-257 15.2 µM | UO-31 10.8 µM

COc1ccc2c(c1)c1c(n2CCN2CCOCC2)-c2ccccc2CC1
29.9 µM: HCT-15
inactive: 786-0 37.4 µM | CAKI-1 > 100 µM | COLO 205 17.1 µM | HCC 2998 20.7 µM | IGROV-1 37.2 µM | K562 15.3 µM | MDA-MB-231 29.4 µM | NCI-H226 21.4 µM | NCI-H460 31.9 µM | OVCAR-3 44.8 µM | OVCAR-4 48.4 µM | PC-3 26.1 µM | RPMI-8226 22.5 µM | SK-MEL-2 25.4 µM | SK-MEL-5 20.7 µM | SN12C 18.8 µM | TK-10 48.1 µM | UACC-257 47.1 µM | UO-31 > 100 µM
